In patent publication US10828301B2, “2,4-pyrimidinediamine compounds and their uses” (Rigel Pharmaceuticals, Inc, priority 2002, dated 2020):

Assays:
[1] = test system: cultured human mast cells (CHMC); assay: CHMC low cell density IgE activation: tryptase and LTC4 assays; type: cell-based
Method in brief: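 Cultured human mast cells at low density (1000-1500 per well) rested 1 h at 37° C, then stimulated with anti-IgE for 30 min at 37° C. Supernatant tryptase measured with fluorogenic substrate (30 min, room temperature); LTC4 quantified by ELISA on diluted supernatant.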

[2] = test system: cultured human mast cells (CHMC); assay: CHMC low cell density ionomycin activation: tryptase assay; type: cell-based; conditions: read-out: CHMC Ionomycin Tryptase
[3] = Homo sapiens, Mast cell, Low Density CHMC, anti-IgE activation, tryptase readout, read-out: CHMC anti-IgE Tryptase
[4] = Homo sapiens, Mast cell, Low Density CHMC, ionomycin activation, tryptase readout
[5] = Low Density CHMC, anti-IgE activation, tryptase readout, read-out: CHMC anti-IgE Tryptase
[6] = Low Density CHMC, ionomycin activation, tryptase readout
[7] = Homo sapiens, Mast cell, read-out: CHMC anti-IgE Tryptase

Row | SMILES | IC50 [1, 3] [µM] | IC50 [2, 4] [µM] | other results
1 | COc1ccc(Nc2nc(Nc3cccc(C(C)(C)C)c3)ncc2F)cc1OC [Compound R940260, N2-(3-tert-Butylphenyl)-N4-(3,4-dimethoxyphenyl)-5-fluoro-2,4-pyrimidinediamine] | 1.13 | > 10 | 
2 | Oc1cccc(Nc2nc(NCCc3c[nH]c4ccccc34)ncc2F)c1 [Compound R945117, 5-Fluoro-N4-(3-hydroxyphenyl)-N2-[2-(indol-3-yl)ethyl]-2,4-pyrimidinediamine] | 4.08 | > 10 | 
3 | COc1ccc(Nc2ncc([N+](=O)[O-])c(Nc3ccc(OC)c(OC)c3)n2)cc1OC [Compound R940089, N2,N4-Bis-(3,4-dimethoxypenyl)-5-nitro-2,4-pyrimidinediamine] |  |  | IC50 [1, 5]: > 10 µM; IC50 [2, 6]: > 10 µM
4 | COC(=O)c1ccc(Nc2ncc(F)c(Nc3ccc(C(=O)OC)cc3)n2)cc1 [Compound R945034, N2,N4-Bis(4-methoxycarbonylphenyl)-5-fluoro-2,4-pyrimidinediamine] | 1.85 | > 10 | 
5 | COc1ccc(Nc2ncc(F)c(Nc3ccc4c(c3)OCCO4)n2)c(OC)c1 [Compound R926789, N2-(2,4-Dimethoxyphenyl)-N4-(3,4-ethylenedioxyphenyl)-5-fluoro-2,4-pyrimidinediamine] | 2.31 | > 10 | 
6 | N#Cc1cccc(Nc2ncc(F)c(Nc3cccc(C#N)c3)n2)c1 [Compound R945051, N2,N4-Bis(3-cyanophenyl)-5-fluoro-2,4-pyrimidinediamine] | 0.95 | > 10 | 
7 | Cc1cc(CNc2nc(Nc3cccc(O)c3)ncc2F)c(C)o1 [Compound R945151, N4-[(2,5-Dimethyl-3-furyl)methyl]-5-fluoro-N2-(3-hydroxyphenyl)-2,4-pyrimidinediamine] | 4.07 | > 10 | 
8 | Cc1ccc(Nc2ncc(F)c(Nc3ccc(C)c(N)c3)n2)cc1N [Compound R950129, N2,N4-Bis(3-amino-4-methylphenyl)-5-fluoro-2,4-pyrimidinediamine] | 0.665 | > 10 | 
9 | C=CCNc1ncc(Br)c(Nc2cccc(O)c2)n1 [Compound R925822, N2-Allyl-5-bromo-N4-(3-hydroxyphenyl)-2,4-pyrimidinediamine] | > 10 | > 10 | 
10 | CNC(=O)C1Cc2cc(Nc3ncc(F)c(Nc4ccc(OC)c(Cl)c4)n3)ccc2O1 (stereo not shown) [Compound R926955, N4-(3-Chloro-4-methoxyphenyl)-5-fluoro-N2-[2,3-dihydro-2-[(N-methylamino)carbonyl]benzofuran-5-yl]-2,4-pyrimidinediamine] | 0.36 | > 10 | 
11 | O=C(O)c1ccc(Nc2ncc(F)c(Nc3ccc(C(=O)O)c(O)c3)n2)cc1O [Compound R945061, N2,N4-Bis(3-hydroxy-4-carboxyphenyl)-5-fluoro-2,4-pyrimidinediamine] | 10 | > 10 | 
12 | COc1ccc(Nc2nc(NCCN3CCN(Cc4ccccc4)CC3)ncc2F)cc1OC [Compound R940262, N2-[2-(N-Benzylpiperazino)ethyl]-N4-(3,4-dimethoxyphenyl)-5-fluoro-2,4-pyrimidinediamine] | > 10 | > 10 | 
13 | Cc1cc(O)cc(N(c2ccc3c(c2)OCCO3)c2nc(N)ncc2F)c1 [Compound R926893, N4-(3,4-Ethylenedioxyphenyl)-5-fluoro-N4-(3-hydroxy-5-methylphenyl)-2,4-pyrimidinediamine] | 10 | > 10 | 
14 | Nc1cc(Nc2ncc(F)c(Nc3ccc([N+](=O)[O-])c(N)c3)n2)ccc1[N+](=O)[O-] [Compound R950135, N2,N4-Bis(3-amino-4-nitrophenyl)-5-fluoro-2,4-pyrimidinediamine] |  |  | IC50 [1, 7]: 0.85 µM; IC50 ([2]; Homo sapiens, Mast cell): > 10 µM
15 | COc1cc(Nc2nc(Nc3cccc(O)c3)ncc2F)cc(OC)c1 [Compound R926802, N4-(3,5-Dimethoxyphenyl)-N2-(3-hydroxyphenyl)-5-fluoro-2,4-pyrimidinediamine] | 1.25 | > 10 | 
16 | Nc1cc(Nc2ncc(F)c(Nc3cc(N)cc(C(F)(F)F)c3)n2)cc(C(F)(F)F)c1 [Compound R950140, N2,N4-Bis(3-amino-5-trifluoromethylphenyl)-5-fluoro-2,4-pyrimidinediamine] | 2.83 | > 10 | 
17 | CNC(=O)C=Nc1cccc(Nc2ncc(F)c(Nc3cccc(NCCO)c3)n2)c1 [Compound R950233, 5-Fluoro-N4-[3-(2-hydroxyethylamino)phenyl]-N2-[3-(N-methylamino)carbonylmethyleneaminophenyl]-2,4-pyrimidinediamine] | 0.98 | > 10 | 
18 | CC(C)Oc1ccc(Nc2ncc(F)c(Nc3ccc(OC(C)C)cc3)n2)cc1 [Compound R926701, N2,N4-Bis(4-isopropoxyphenyl)-5-fluoro-2,4-pyrimidinediamine] | 2.2 | > 10 | 

Row | SMILES | IC50 [1, 3] [µM] | IC50 [2, 4] [µM] | other results
19 | O=[N+]([O-])c1cc(Nc2ncc(F)c(Nc3ccc(Cl)c([N+](=O)[O-])c3)n2)ccc1Cl [Compound R950149, N2,N4-Bis(4-chloro-3-nitrophenyl)-5-fluoro-2,4-pyrimidinediamine] |  |  | IC50 [1, 7]: 10 µM; IC50 ([2]; Homo sapiens, Mast cell): > 10 µM
20 | CCOC(=O)c1nc(Nc2ccc3c(c2)OCCO3)nc(Nc2ccc3c(c2)OCCO3)c1[N+](=O)[O-] [Compound R925852, N2,N4-Bis(3,4-ethylendioxyphenyl)-6-ethoxycarbonyl-5-nitro-2,4-pyrimidinediamine] | 3 | > 10 | 
21 | CCOC(=O)CNc1nc(NCC(=O)OCC)c([N+](=O)[O-])c(C(=O)OCC)n1 [Compound R925864, N2,N4-Bis(ethoxycarbonylmethyl)-6-ethoxycarbonyl-5-nitro-2,4-pyrimidinediamine] | > 10 | > 10 | 
22 | COC(=O)c1cc2cc(Nc3ncc(F)c(Nc4cccc(OC(C)C)c4)n3)ccc2o1 [Compound R926487, 5-Fluoro-N4-(3-isopropoxyphenyl)-N2-(2-methoxycarbonylbenzofuran-5-yl)-2,4-pyrimidinediamine] | 0.554 | 8.87 | IC50 ([1]; Homo sapiens, Mast cell, Low Density CHMC, anti-IgE activation, LTC4 readout, read-out: CHMC anti-IgE LTC4): 1.25 µM
23 | Fc1cnc(Nc2cccc(-c3cnco3)c2)nc1Nc1ccc2c(c1)OCCO2 [Compound R926813, N4-(3,4-Ethylenedioxyphenyl)-5-fluoro-N2-[3-(1,3-oxazol-5-yl)phenyl]-2,4-pyrimidinediamine] | 0.152 | > 10 | 
24 | Oc1ccc(Nc2ncc(F)c(Nc3ccc(O)c(Cl)c3)n2)cc1Cl [Compound R926675, N2,N4-Bis(3-chloro-4-hydroxyphenyl)-5-fluoro-2,4-pyrimidinediamine] | 0.63 | > 10 | 
25 | Fc1cnc(Nc2ccc(SC(F)(F)F)cc2)nc1Nc1ccc2c(c1)OCCO2 [Compound R926899, N4-(3,4-Ethylenedioxyphenyl)-5-fluoro-N2-(4-trifluoromethylthiophenyl)-2,4-pyrimidinediamine] | 1.1 | > 10 | 
26 | COC(=O)c1ccc(CNc2nc(Nc3cccc(O)c3)ncc2C#N)cc1 [Compound R925821, 5-Cyano-N2-(3-hydroxyphenyl)-N4-(methoxycarbonylbenzyl)-2,4-pyrimidinediamine] |  |  | IC50 [1, 5]: > 10 µM; IC50 [2, 6]: > 10 µM
27 | Clc1cccc(-c2cnc(Nc3ccc4c(c3)OCCO4)nc2Nc2ccc3c(c2)OCCO3)c1 [Compound R925787, N2,N4-Bis(3,4-ethylenedioxyphenyl)-5-(3-chlorophenyl)-2,4-pyrimidinediamine] | 9 | > 10 | 
28 | Cc1cnc(Nc2ccccc2-c2ccccc2)nc1Nc1ccccc1-c1ccccc1 [Compound R926404, N2,N4-Bis(2-phenylphenyl)-5-methyl-2,4-pyrimidinediamine] | > 10 | > 10 | 
29 | COc1ccc(Nc2ccnc(Nc3ccc(OC)c(-c4ccccc4)c3)n2)cc1-c1ccccc1 [Compound R925806, N2,N4-Bis(4-methoxy-3-phenylphenyl)-2,4-pyrimidinediamine] | > 10 | > 10 | 
30 | Cc1ccc(-c2ccccc2)cc1Nc1ccnc(Nc2cc(-c3ccccc3)ccc2C)n1 [Compound R925807, N2,N4-Bis(2-methyl-5-phenylphenyl)-2,4-pyrimidinediamine] | > 10 | > 10 | 
31 | COc1cc(Nc2ncc(F)c(Nc3cc(OC)c(OC)c(OC)c3)n2)cc(OC)c1OC [Compound R926688, N2,N4-Bis(3,4,5-trimethoxyphenyl)-5-fluoro-2,4-pyrimidinediamine] | 2.25 | > 10 | 
32 | N#Cc1cccc(Nc2nc(Nc3cccc(O)c3)ncc2F)c1 [Compound R945109, N4-(3-Cyanophenyl)-5-fluoro-N2-(3-hydroxyphenyl)-2,4-pyrimidinediamine] | 1.02 | > 10 | 
33 | Oc1ccc(CCNc2ncc(F)c(NCCc3ccc(O)cc3)n2)cc1 [Compound R925791, N2,N4-Bis[2-(4-hydroxyphenyl)ethyl]-5-fluoro-2,4-pyrimidinediamine] | > 10 | > 10 | 
34 | COc1ccc(-c2ccccc2)cc1Nc1ncc(C)c(Nc2cc(-c3ccccc3)ccc2OC)n1 [Compound R935000, N2,N4-Bis(2-methoxy-5-phenylphenyl)-5-methyl-2,4-pyrimidinediamine] | > 10 | > 10 | 
35 | Oc1cccc(Nc2ncc(F)c(NCc3csc4ccc(Cl)cc34)n2)c1 [Compound R926722, N4-[(5-Chloro-1-benzothiophen-3-yl)methyl]-5-fluoro-N2-(3-hydroxyphenyl)-2,4-pyrimidinediamine] | 5.96 | > 10 | 
36 | Fc1cnc(NCc2ccccc2)nc1NCc1ccccc1 [Compound R925772, N2,N4-Dibenzyl-5-fluoro-2,4-pyrimidinediamine] | > 10 | > 10 | 
